Data on one substance can be found in patent US20230103552A1, “SYSTEMS AND PHARMACEUTICAL COMPOSITIONS FOR TREATMENT BY DIRECT INJECTION OF A TARGETED POPULATION OF CELLS” (Privo Technologies, Inc., priority 2020, published 2023).

Some results are limits rather than exact numbers.

The test system of data set [1] is mice grafted with cancer cells. Put plainly: In-vivo mice study, tumor volume vs time. From the text:
FIG. 6 provides a graph of change in Mice tumor volume vs time involving different treatments. The black curve corresponds to a control untreated tumor, the gray curve corresponds to intratumoreal injection with placebo particles containing no drug, the green curve corresponds to intravenous injection with drug, the red curve corresponds to intratumoreal injection of free drug, and the blue curve corresponds to injection with drug-encapsulated hydrogel PRV311.
Here, the PRV311 composition included microparticles loaded with the anti-tumor cytokine IL-12. […] It is hypothesized that the injected PRV311's polymeric mesh causes microparticles containing PRV311 to be retained locally, increasing efficacy.

For data set [2], the system named is established colorectal (MC32a) and pancreatic (Panc02) tumors. The conditions noted are these: weekly i.t. injections; cited from earlier work.
The conditions of data set [3]: mouse, in vivo; cited from earlier work.

IL-12: potent antitumor cytokine: the tumor growth result in data set [1] (intratumoral injection) was “merely delayed tumor growth”; in data set [1] (intravenous injection), “no significant change in tumor growth rate”. In data set [2], the established tumors eradicated is given as not above 10%. For the same substance, the “local IL-12 retention” value in data set [3] is 1 to 2 days.
